According to patent US20070207104A1, “Antimicrobial esters” (priority 2006, published 2007):
Like-named read-outs stand apart in the source and are kept apart here.

Tests used:
[1] = tested on: Gram-positive bacteria: Staphylococcus aureus, and Bacillus subtilis; assay: Minimal inhibitory concentration, agar dilution (Mueller-Hinton), Gram-positive bacteria; assay type: cell-based; conditions: for visible growth on agar plates: Gram Positive Organisms, concentration 0.3 %; for Minimum Inhibitory Concentration (MIC): Gram Positive Bacteria Staphylococcus aureus, Staphlyococcus epidermidis, Bacillus subtilis
Protocol: Mueller-Hinton is the agar medium used in these studies. Dilutions of materials to be tested were made directly into warm molten agar as described below to achieve the final concentration range (0-6%) shown in the Tables below.
(§1) Agar was prepared as recommended by the manufacturer. Sterilized agar was allowed to cool to 50° C. in a water bath and dispensing an appropriate amount into sterile containers. The agent being tested was added to the agar and thoroughly mixed. Plates were then poured and allowed to solidify at room temperature. All plates were used immediately and not stored.
A standard inoculating loop was used to deliver and spread the inoculum on the plates. Plates were allowed to dry at room temperature before inverting and incubation. Bacterial plates were incubated at 35° C. for 48 hours while fungal plates were incubated at 25° C. for 72 hours. All plates were visually inspected immediately following incubation and the results recorded.
(§2) The organisms tested were the following: Gram-positive bacteria: Staphylococcus aureus, and Bacillus subtilis; Gram-negative bacteria: Escherichia coli and Pseudomonas aeruginosa; and Fungi: Candida albicans, Asperillus niger and Penicillium notatum.
The results below are expressed as the concentration (%) of agent corresponding to the MIC for each group of organisms tested.

[2] = Solubility in water / oil; assay type: physicochemical
[3] = tested on: Gram-negative bacteria: Escherichia coli and Pseudomonas aeruginosa; assay: Minimal inhibitory concentration, agar dilution (Mueller-Hinton), Gram-negative bacteria; assay type: cell-based; conditions: for visible growth on agar plates: Gram Negative Organisms, concentration 0.3 %; for Minimum Inhibitory Concentration (MIC): Gram Negative Bacteria Escherichia coli, Pseudomonas aeruginosa
Protocol: (§3) The minimal inhibitory concentration of the composition was determined based on methods as described in the United States Pharmacopiea, National Formulary (“USP, NF”), NF 18, 1995, Microbial Assays and Journal of Applied Microbiology 89(2): 275-279 by testing microorganisms for their ability to produce visible growth on a series of agar plates containing dilutions of the composition. Mueller-Hinton is the agar medium used in these studies. Dilutions of materials to be tested were made directly into warm molten agar as described below to achieve the final concentration range (0-6%) shown in the Tables below.
as §1
(§4) Broth cultures (24 hours) were adjusted photometrically to give 10^7 CFU/ml (colony forming units/ml) and the plates were inoculated within 30 minutes of standardizing the inoculum. A standard inoculating loop was used to deliver and spread the inoculum on the plates. Plates were allowed to dry at room temperature before inverting and incubation. Bacterial plates were incubated at 35° C. for 48 hours while fungal plates were incubated at 25° C. for 72 hours. All plates were visually inspected immediately following incubation and the results recorded.
as §2
(§5) The effects of the structure of the polyhydric alcohol, the structure of the carboxylic acid and the extent of alkoxylation on antimicrobial activity were determined using the MIC assay as described in Example 1. The results below are expressed as the concentration (%) of agent corresponding to the MIC for each group of organisms tested.

[4] = tested on: Fungi: Candida albicans, Asperillus niger and Penicillium notatum; assay: Minimal inhibitory concentration, agar dilution (Mueller-Hinton), fungi; assay type: cell-based
Protocol: as §3, §1, §4, §2, §5

[5] = Safety testing: neat material on forearm of human volunteers under occlusive conditions for 48 hours; assay type: in vivo; set-up: key to dermal response score (6-point scale): 0=No evidence of any effect; +=Barely perceptible (Minimal, faint, uniform or spotty erythema); 1=Mild (Pink, uniform erythema covering most of the contact site); 2=Moderate (Pink-red erythema uniform in the entire contact site); 3=Marked (Bright re erythema with/without petechiae or papules); 4=Severe (Deep red erythema with/without vesiculation or weeping)
Protocol: The safety of G-18-O was tested using the neat (undiluted) material applied to the forearm of 51 human volunteers under occlusive conditions for 48 hours. These conditions are particularly aggressive, especially when compared with those in the prior art, where data on safety, if disclosed at all, is generally anecdotal using low concentrations of the agent. The dermal responses for G-18-O were scored by expert evaluators under clinical conditions according to the following 6-point scale: • 0=No evidence of any effect; • +=Barely perceptible (Minimal, faint, uniform or spotty erythema); • 1=Mild (Pink, uniform erythema covering most of the contact site); • 2=Moderate (Pink-red erythema uniform in the entire contact site); • 3=Marked (Bright re erythema with/without petechiae or papules); and • 4=Severe (Deep red erythema with/without vesiculation or weeping).

HLB value = assay type: physicochemical
[6] = tested on: Gram-positive and Gram-negative organisms as well as fungi; assay: Antimicrobial activity in the MIC assay, all groups of organisms tested; assay type: cell-based
Protocol: as §3, §1
Broth cultures (24 hours) were adjusted photometrically to give 10^7 CFU/ml (colony forming units/ml) and the plates were inoculated within 30 minutes of standardizing the inoculum. A standard inoculating loop was used to deliver and spread the inoculum on the plates. Plates were allowed to dry at room temperature before inverting and incubation. Bacterial plates were incubated at 35° C. for 48 hours while fungal plates were incubated at 25° C. for 72 hours. All plates were visually inspected immediately following incubation and the results recorded. […]
as §5

Compound	Minimum Inhibitory Concentration (MIC) [4]	Minimum Inhibitory Concentration (MIC) [1]	Minimum Inhibitory Concentration (MIC) [3]	also measured
CCCCCCCC(=O)OCC(O)CO (centres unmarked) [Glyceryl Caprylate, reference compound]				visible growth on agar plates [1]: 50%; oil solubility [2]: substantially oil soluble; visible growth on agar plates [3]: 50%
Glycereth-7 Ethylhexanoate	1.5%	3%	3%	
Glycereth-18 Benzoate	>=6%	3%	3%	
Glycereth-18 Ethylhexanoate [G-18-O]	1.5%	0.6%	0.6%	dermal response score (6-point scale) ([5]; forearm of 51 human volunteers, occlusive, all panelists): 0; skin irritation ([5]; intimate contact with skin, occlusive conditions): totally non-irritating; visible growth on agar plates [1]: 50%; HLB value (HLB value): greater than 10; water solubility [2]: very water soluble; water solubility ([2]; listed as G-18-0): substantially water-soluble; water solubility ([2]; listed as Glycereth-18 ethylhexanoate): very water-soluble; visible growth on agar plates [3]: 50%; antimicrobial activity [6]: effective antimicrobial agent; antimicrobial activity ([6]; listed as G-18-0): essentially equal to that of glyceryl caprylate
Glycereth-18 Laurate	>=6%	0.6%	0.6%	
Glycereth-18 Pelargonate	1.5%	>=6%	>=6%	
Glycereth-18 [reference compound]	>=6%	>=6%	>=6%	antimicrobial activity [6]: no activity
Glycereth-20 Ethylhexanoate	3%	3%	3%	
Glycereth-40 Ethylhexanoate	1.5%	3%	3%	
Propylene Glycol-18 Ethylhexanoate	1.5%	>=6%	>=6%	
